Here are results for 21 compounds from ChEMBL document CHEMBL5385936, “Design, synthesis, α-amylase and glucose diffusion inhibition, and molecular docking studies of new indenopyrazolones bearing benzothiazole derivatives” (Bioorg Med Chem Lett, 2024).

A short description of assay [1]: In vitro antidiabetic activity measured by appearance of glucose in external solution using dialysis bag and D-glucose incubated for 1 to 27 hrs by 3,5-dinitrosalicylic acid based glucose diffusion inhibition assay. It counts as functional. The settings on record: time 1-27 hrs.
Assay [2] is described as follows: Inhibition of Aspergillus oryzae alpha-amylase in presence of 1% starch incubated for 10 mins.

The IC50 is the point on the concentration scale where inhibition reaches its midpoint. `O=C1c2ccccc2-c2c1c(-c1ccc(Br)cc1)nn2-c1nc2ccc(F)cc2s1` displayed an Activity in assay [1] of 12.7 µg/mL. Besides, the concentration for half-maximal inhibition (IC50) in assay [2] came to 196.85 µg/mL.

For the compound `Cc1cccc2sc(-n3nc(-c4ccc(Cl)cc4)c4c3-c3ccccc3C4=O)nc12`, the Activity in assay [1] was 9.5 µg/mL. In assay [2], the IC50 was 92.99 µg/mL.

Compound `Cc1cccc(-c2nn(-c3nc4ccc(F)cc4s3)c3c2C(=O)c2ccccc2-3)c1` registered an Activity in assay [1] of 13.5 µg/mL. Also, the IC50 in assay [2] turned out to be 95.41 µg/mL.

Turning to `Cc1cccc(-c2nn(-c3nc4c(C)cccc4s3)c3c2C(=O)c2ccccc2-3)c1`, the Activity in assay [1] was found to be 8.25 µg/mL. For the same compound, the IC50 in assay [2] was 198.33 µg/mL.

On to `O=C1c2ccccc2-c2c1c(-c1cccc(Cl)c1)nn2-c1nc2ccc(F)cc2s1`, for which, in assay [1], the Activity was 18 µg/mL. Moreover, in assay [2], the half-inhibitory concentration (IC50) is 190.98 µg/mL.

In assay [1], `O=C1c2ccccc2-c2c1c(-c1ccc(Cl)cc1)nn2-c1nc2ccc(F)cc2s1` came in with an Activity of 17.6 µg/mL. In addition, in assay [2], the half-maximal inhibitory concentration (IC50) was 189.69 µg/mL.

In the case of `COc1ccc(-c2nn(-c3nc4c(C)cccc4s3)c3c2C(=O)c2ccccc2-3)cc1`, the Activity in assay [1] was 12.7 µg/mL. In addition, in assay [2], the IC50 is 161.92 µg/mL.

On to `COc1cccc(-c2nn(-c3nc4c(C)cccc4s3)c3c2C(=O)c2ccccc2-3)c1`, for which the Activity in assay [1] was found to be 10.8 µg/mL. In assay [2], the half-inhibitory concentration (IC50) came to 200.95 µg/mL.

For `Cc1cccc2sc(-n3nc(-c4cccc(Cl)c4)c4c3-c3ccccc3C4=O)nc12`, the Activity in assay [1] stood at 2.25 µg/mL. Moreover, the 50% inhibitory concentration (IC50) in assay [2] amounted to 171.2 µg/mL.

Turning to `O=C1c2ccccc2-c2c1c(-c1ccccc1)nn2-c1nc2ccc(F)cc2s1`, the Activity in assay [1] was 2.63 µg/mL. In addition, the half-maximal inhibitory concentration (IC50) in assay [2] was determined as 98.42 µg/mL.

Consider `Cc1cccc2sc(-n3nc(-c4ccc(Br)cc4)c4c3-c3ccccc3C4=O)nc12`, for which the Activity in assay [1] was 17.2 µg/mL. For the same compound, in assay [2], the concentration for half-maximal inhibition (IC50) was 132.41 µg/mL.

`Cc1ccc(-c2nn(-c3nc4ccc(F)cc4s3)c3c2C(=O)c2ccccc2-3)cc1`: the Activity in assay [1] came to 6.8 µg/mL. Besides, the IC50 in assay [2] was 135.14 µg/mL.

`Cc1cccc2sc(-n3nc(-c4ccccc4)c4c3-c3ccccc3C4=O)nc12` displayed an Activity in assay [1] of 6.68 µg/mL. Further, in assay [2], the half-maximal inhibitory concentration (IC50) was found to be 167.48 µg/mL.

For `O=C1c2ccccc2-c2c1c(-c1ccc(F)cc1)nn2-c1nc2ccc(F)cc2s1`, the Activity in assay [1] stood at 11.5 µg/mL. Moreover, in assay [2], the IC50 was determined as 144.106 µg/mL.

In assay [1], `Cc1ccc(-c2nn(-c3nc4c(C)cccc4s3)c3c2C(=O)c2ccccc2-3)cc1` yielded an Activity of 7.25 µg/mL. The 50% inhibitory concentration (IC50) in assay [2] is 165.59 µg/mL.

Consider `O=C1c2ccccc2-c2c1c(-c1cccc(Br)c1)nn2-c1nc2ccc(F)cc2s1`, for which, in assay [1], the Activity was 11.9 µg/mL. Moreover, the IC50 in assay [2] was determined as 192.95 µg/mL.

With `COc1cccc(-c2nn(-c3nc4ccc(F)cc4s3)c3c2C(=O)c2ccccc2-3)c1`, in assay [1], the Activity was 10.9 µg/mL. In addition, in assay [2], the half-maximal inhibitory concentration (IC50) was 162.5 µg/mL.

For `COc1ccc(-c2nn(-c3nc4ccc(F)cc4s3)c3c2C(=O)c2ccccc2-3)cc1`, the Activity in assay [1] was determined as 4.26 µg/mL. The concentration for half-maximal inhibition (IC50) in assay [2] came out at 104.74 µg/mL.

`Cc1cccc2sc(-n3nc(-c4cccc(Br)c4)c4c3-c3ccccc3C4=O)nc12` returned an Activity in assay [1] of 6.29 µg/mL. The half-maximal inhibitory concentration (IC50) in assay [2] is 183.43 µg/mL.

Turning to `C[C@H]1O[C@H](O[C@H]2[C@H](O)[C@@H](O)[C@@H](O[C@H]3[C@H](O)[C@@H](O)C(O)O[C@@H]3CO)O[C@@H]2CO)[C@H](O)[C@@H](O)[C@@H]1N[C@H]1C=C(CO)[C@@H](O)[C@H](O)[C@H]1O` (some centres not stated) [ACARBOSE], the Activity in assay [1] amounted to 2.76 µg/mL. Besides, the half-inhibitory concentration (IC50) in assay [2] worked out at 103.6 µg/mL.

`Cc1cccc2sc(-n3nc(-c4ccc(F)cc4)c4c3-c3ccccc3C4=O)nc12` showed an Activity in assay [1] of 13.2 µg/mL. The IC50 in assay [2] was 159.95 µg/mL.
